The source of these data is ChEMBL document CHEMBL1201862, “PubChem BioAssay data set” (2004).

Activity calls are given as the source filed them.

For one assay, the system named is HepG2. Description: HepG2 Cytotoxicity Assay Measured in Cell-Based System Using Plate Reader - 7071-02_Inhibitor_Dose_CherryPick_Activity. The conditions noted are these: Homo sapiens. Format: functional.
Assay [1] concerns HEK293. Description: viability loss in HEK293T cells – cell-based, ATP luminescence, cherry-pick samples, cytotoxicity control, dose response (AID 687005).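 Also: cells exposed to compound for 48 hours.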 It counts as functional. As to conditions: Homo sapiens.
A short description of assay [2]: HEK293 Cytotoxicity Assay Measured in Cell-Based System Using Plate Reader - 7071-01_Inhibitor_Dose_CherryPick_Activity_Set2. Format: functional.
Assay [3] can be described thus: viability loss in HepG2 hepatoma cells – cell-based, cherry-picks, set 5, cytotoxicity control, dose response (AID 1053118). Format: functional.
Assay [4] can be described thus: viability loss in HEK293 kidney cells – cell-based, cherry-picks, set 5, cytotoxicity control, dose response (AID 1053117). It counts as functional.
Assay [5] in a line: viability loss in A549 lung cancer cells – cell-based, cherry-picks, […], cytotoxicity control, dose response (AID 1053119). Format: functional.
The subject of another assay is Cryptococcus neoformans. Kind of assay: PubChem AID 686997. Format: functional, organism-based.
In a further assay the test system is HeLa. Kind of assay: viability loss in HeLa cells – cell-based, ATP luminescence, cherry-pick samples, cytotoxicity control, dose response (AID 687004). It counts as functional. The conditions noted are these: Homo sapiens.
Assay [6] addresses Potassium channel subfamily K member 9 (Homo sapiens, UniProt Q9NPC2). Kind of assay: KCNK9 flux blockade, concentration-response – cell-based, FluxOR thallium flux, selectivity assay for TASK1 inhibitor project, SAR follow-up (AID 652211).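 Also: potency is for inhibitors of the channel.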 It counts as functional.
Assay [7] in a line: general mammalian cell viability loss – activator set, cherry-pick, cytotoxicity control for miR-122 modulator project, dose response (AID 720690).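 Also: HEK293T human cells scored for general mammalian cytotoxicity.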 Format: functional, cell-based.
The target in another assay is NS3 (Hepatitis C virus, UniProt A3EZJ3). Kind of assay: NS3h DNA-binding inhibition IC50 – biochemical, fluorescence polarization, ChemBridge library, dose response (AID 743264).
In assay [8] the target is T1, High affinity choline transporter 1 (Homo sapiens, UniProt Q9GZV3).
T1 sequence (Q9GZV3 whole entry): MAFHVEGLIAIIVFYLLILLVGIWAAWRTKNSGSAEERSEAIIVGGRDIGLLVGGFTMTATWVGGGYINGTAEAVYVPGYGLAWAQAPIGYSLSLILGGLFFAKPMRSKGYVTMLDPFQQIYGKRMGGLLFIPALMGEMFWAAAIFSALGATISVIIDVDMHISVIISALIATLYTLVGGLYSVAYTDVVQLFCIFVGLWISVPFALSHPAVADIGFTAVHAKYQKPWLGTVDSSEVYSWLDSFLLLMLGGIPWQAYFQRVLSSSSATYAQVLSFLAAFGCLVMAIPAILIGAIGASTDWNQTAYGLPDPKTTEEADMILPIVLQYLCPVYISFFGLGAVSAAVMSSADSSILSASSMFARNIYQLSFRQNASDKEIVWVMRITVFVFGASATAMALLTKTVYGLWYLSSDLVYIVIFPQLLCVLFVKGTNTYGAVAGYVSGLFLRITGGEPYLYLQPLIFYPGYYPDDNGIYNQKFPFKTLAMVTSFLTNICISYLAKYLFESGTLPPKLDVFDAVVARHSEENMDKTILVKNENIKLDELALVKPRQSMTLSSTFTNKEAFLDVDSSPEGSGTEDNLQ
Kind of assay: inhibition of SLC5A7-mediated choline transport – cell-based, HEK-293 hCHT, [3H]-choline uptake, dose response (AID 652177). It counts as functional.

The test system of assay [9] is HEK293. Kind of assay: inhibition of NOD1-driven NF-kB reporter – cell-based, luminescence, uHTS, primary screen (AID 1578). Format: functional. The conditions noted are these: Homo sapiens.
Assay [10] concerns HEK293. Description: cells. It counts as functional, cell-based. The conditions noted are these: Homo sapiens.
For assay [11], the system named is HEK293. Kind of assay: cells. It counts as functional, cell-based. The conditions noted are these: Homo sapiens. The source holds these as a separate data set.
The target of assay [12] is Nucleotide-binding oligomerization domain-containing protein 2 (Homo sapiens, UniProt Q9HC29). Description: inhibition of NOD2-driven NF-kB reporter – cell-based, luminescence, uHTS, HEK293 (AID 1566). Format: functional.
For assay [13], the system named is HEK293. Kind of assay: NOD2 signaling inhibitors in MDP-stimulated cells, cell-based, uHTS, luminescence (AID 2001). The conditions noted are these: Homo sapiens. It counts as functional.
The subject of assay [14] is HEK293. Description: cells. Format: functional, cell-based. The conditions noted are these: Homo sapiens. This is another data set of the same source.
The target in another assay is Albumin (Bos taurus, UniProt P02769). Description: Counterscreen for inhibitors of T-cell receptor (TCR)-CD3 interaction: Fluorescence-based biochemical high throughput dose response assay to identify inhibitors of T-cell receptor (TCR)-CD3 interaction using a TAMRA-labeled BSA probe. Format: functional.
Albumin, sequence (P02769 whole entry): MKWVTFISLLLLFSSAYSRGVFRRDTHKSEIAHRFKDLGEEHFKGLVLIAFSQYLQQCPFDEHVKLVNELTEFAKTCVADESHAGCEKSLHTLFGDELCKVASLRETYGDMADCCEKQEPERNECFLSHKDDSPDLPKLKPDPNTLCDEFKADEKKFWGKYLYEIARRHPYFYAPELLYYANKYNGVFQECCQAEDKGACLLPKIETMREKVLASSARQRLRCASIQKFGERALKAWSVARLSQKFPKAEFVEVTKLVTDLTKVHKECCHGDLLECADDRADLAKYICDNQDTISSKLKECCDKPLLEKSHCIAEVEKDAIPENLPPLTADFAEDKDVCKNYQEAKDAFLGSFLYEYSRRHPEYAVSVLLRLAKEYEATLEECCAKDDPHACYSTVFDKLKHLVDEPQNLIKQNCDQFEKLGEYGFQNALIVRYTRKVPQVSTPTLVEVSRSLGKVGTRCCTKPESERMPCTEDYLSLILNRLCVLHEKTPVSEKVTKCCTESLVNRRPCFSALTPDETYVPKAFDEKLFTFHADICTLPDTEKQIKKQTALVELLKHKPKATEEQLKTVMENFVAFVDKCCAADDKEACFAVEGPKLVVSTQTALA

NS3, sequence (A3EZJ3 whole entry): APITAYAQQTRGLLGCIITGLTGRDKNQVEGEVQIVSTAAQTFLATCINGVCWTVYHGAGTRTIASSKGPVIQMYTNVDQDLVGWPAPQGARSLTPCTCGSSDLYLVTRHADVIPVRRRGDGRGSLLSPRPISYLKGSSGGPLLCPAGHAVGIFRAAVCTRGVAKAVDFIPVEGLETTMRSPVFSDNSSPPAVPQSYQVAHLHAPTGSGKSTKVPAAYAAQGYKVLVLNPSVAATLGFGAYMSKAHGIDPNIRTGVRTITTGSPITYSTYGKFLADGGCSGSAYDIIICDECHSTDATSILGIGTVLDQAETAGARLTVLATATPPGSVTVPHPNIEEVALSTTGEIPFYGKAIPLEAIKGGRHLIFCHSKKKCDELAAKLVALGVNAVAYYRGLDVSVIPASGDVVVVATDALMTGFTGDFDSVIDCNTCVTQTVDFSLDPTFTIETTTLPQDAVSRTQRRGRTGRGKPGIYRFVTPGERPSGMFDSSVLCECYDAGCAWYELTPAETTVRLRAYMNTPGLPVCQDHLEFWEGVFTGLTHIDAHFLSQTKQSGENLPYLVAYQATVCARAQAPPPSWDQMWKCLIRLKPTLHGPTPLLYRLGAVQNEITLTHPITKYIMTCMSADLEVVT
Potassium channel subfamily K member 9, sequence (Q9NPC2 whole entry): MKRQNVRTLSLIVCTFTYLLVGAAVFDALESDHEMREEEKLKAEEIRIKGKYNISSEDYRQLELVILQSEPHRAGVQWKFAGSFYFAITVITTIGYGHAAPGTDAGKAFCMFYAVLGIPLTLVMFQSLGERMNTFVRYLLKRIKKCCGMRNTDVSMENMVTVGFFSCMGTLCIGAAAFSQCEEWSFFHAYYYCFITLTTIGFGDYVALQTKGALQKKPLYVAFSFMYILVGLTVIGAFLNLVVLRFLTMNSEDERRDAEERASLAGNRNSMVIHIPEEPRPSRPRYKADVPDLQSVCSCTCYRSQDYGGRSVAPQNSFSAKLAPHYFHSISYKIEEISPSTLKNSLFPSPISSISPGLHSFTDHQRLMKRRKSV
Nucleotide-binding oligomerization domain-containing protein 2, sequence (Q9HC29 whole entry, the tested form may be a part): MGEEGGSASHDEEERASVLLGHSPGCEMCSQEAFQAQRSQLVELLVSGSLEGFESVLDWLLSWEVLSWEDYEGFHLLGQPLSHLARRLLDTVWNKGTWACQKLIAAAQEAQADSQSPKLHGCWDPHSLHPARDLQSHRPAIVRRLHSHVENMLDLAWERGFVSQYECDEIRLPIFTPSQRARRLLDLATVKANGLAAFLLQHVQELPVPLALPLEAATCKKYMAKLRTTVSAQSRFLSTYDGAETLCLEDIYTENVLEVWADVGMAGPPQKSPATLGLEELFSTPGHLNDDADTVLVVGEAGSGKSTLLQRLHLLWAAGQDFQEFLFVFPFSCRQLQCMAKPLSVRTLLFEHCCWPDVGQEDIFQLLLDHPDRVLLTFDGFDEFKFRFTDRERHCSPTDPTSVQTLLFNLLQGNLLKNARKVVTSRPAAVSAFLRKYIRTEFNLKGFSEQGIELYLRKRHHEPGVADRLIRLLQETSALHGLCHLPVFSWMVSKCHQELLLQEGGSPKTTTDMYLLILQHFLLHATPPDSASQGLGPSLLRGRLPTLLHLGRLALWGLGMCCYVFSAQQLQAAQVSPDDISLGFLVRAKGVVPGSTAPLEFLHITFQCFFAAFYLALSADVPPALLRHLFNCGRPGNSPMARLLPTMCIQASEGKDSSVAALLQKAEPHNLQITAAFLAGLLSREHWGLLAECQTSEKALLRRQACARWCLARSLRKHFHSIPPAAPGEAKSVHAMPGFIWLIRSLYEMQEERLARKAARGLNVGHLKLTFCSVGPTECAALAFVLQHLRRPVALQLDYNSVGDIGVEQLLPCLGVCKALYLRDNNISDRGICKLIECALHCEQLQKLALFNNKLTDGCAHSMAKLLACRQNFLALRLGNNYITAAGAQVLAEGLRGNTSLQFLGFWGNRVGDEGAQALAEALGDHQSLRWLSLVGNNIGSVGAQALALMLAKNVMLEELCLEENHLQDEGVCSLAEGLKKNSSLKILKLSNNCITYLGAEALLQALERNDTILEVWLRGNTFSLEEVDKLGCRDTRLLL

In the case of `O=C(CC1CC1)N1[C@@H]2CN(S(=O)(=O)c3ccccc3)c3ccccc3[C@@H]2[C@@H]1CO`, the half-maximal activity concentration (AC50) with HepG2 is 19.8 µM (active); with HEK293 [1], 28 µM (active); in [2] it was 28 µM (active).

`CO[C@H]1CN(C)C(=O)c2ccc(NC(=O)c3ccc(-c4ccccc4)cc3)cc2OC[C@H](C)NC[C@H]1C`: the AC50 in assay [3] was 32.2 µM (active); in assay [4], > 52 µM (inactive); in [5], 33.9 µM (active).

Turning to `COC(=O)C1=C(C)N(Cc2ccc(Cl)cc2)C(=S)NC1c1cccc(Cl)c1` (stereo unspecified), the AC50 is > 70 µM (inactive) in the assay on Cryptococcus neoformans, > 47 µM (inactive) in the assay on HeLa, 23.4 µM (active) with HEK293 [1] and 23.4 µM (active) in assay [2].

With `O=C(Nc1cccc(NC(=O)C2CCCCC2)c1)c1ccccc1`, the 50% inhibitory concentration (IC50) in [6] is 8 µM (active).

Take `COc1cccc(S(=O)(=O)N(C)C[C@@H]2Oc3cc(C4=CCCCC4)ccc3S(=O)(=O)N([C@H](C)CO)C[C@@H]2C)c1`: the AC50 in assay [7] was 25.1 µM (active).

Consider `O=C1NC(=S)N(c2ccccc2)C(=O)/C1=C/c1ccc(-c2ccc(C(=O)O)c(Cl)c2)o1`, for which, on NS3, the IC50 is 96.9 µM (active).

On to `COc1ccc(C(=O)NCc2cc(C(C)C)no2)cc1OCCN1CCOCC1`, for which, in [8], the concentration for half-maximal inhibition (IC50) is 6.12 µM (active).

As to `O=C(CNC(=O)c1cccc(Br)c1)N/N=C/c1cc(Br)cc(Br)c1O`, the EC50 (in the assay on HEK293 [9]; in assay [12]) was > 20 µM (inactive) throughout. Further, the half-inhibitory concentration (IC50) was 19.4 µM (active) in the assay on HEK293 [10]; > 20 µM (inactive) in the assay on HEK293 [11]; > 20 µM (inactive) with HEK293 [13]; > 20 µM (inactive) with HEK293 [14]; > 94.1 µM (inactive) on Albumin.
